Reference: patent US20170010280A1, “GDF15 AS BIOMARKER FOR DIAGNOSING MITOCHONDRIAL DISEASES” (TOKYO METROPOLITAN GERIATRIC HOSPITAL AND INSTITUTE OF …, priority 2014, published 2017)
Like-named read-outs stand apart in the source and are kept apart here.

What was measured:
[1] = system: mitochondrial disease patients; assay: sodium pyruvate therapy for mitochondrial disease patients; format: in vivo, human; conditions: patients n=10, 0.3 g/kg to 2 g/kg, over seven years
Text: 4. Study of sodium pyruvate therapy for mitochondrial disease patients For mitochondrial disease patients (n=10), sodium pyruvate (0.3 g/kg to 2 g/kg) had been administered for over seven years. During the period, the transition of
FGF-21 and GDF-15 had been determined and parameters of other therapeutic effects had been investigated. The mitochondrial disease patients contained PDH E1A deficiency, MELAS/cardiomyopathy with A3243G mutation, and MELAS/Leigh syndrome with G13513A mutation in the ND5 gene.

2SD cells [2] = assay: metabolome analysis of energy metabolism; format: cell-based, human; conditions: 10 mM, 4 hours after treatment
Method: (§1) (ii) Metabolome analysis were performed using 2SA cells and 2SD cells. […] The energy metabolism disorder has become remarkable 4 hours after treatment of high concentration of lactic acid (10 mM) in 2SD cells, and the phenomenon was not observed after treatment of high concentration of pyruvic acid (10 mM). The energy metabolism disorder was not observed after treatment of high concentration of lactic acid in 2SA cells. Based on the results, we came up with the forecast that the genes expressed in 2SD cells with energy metabolism disorders in a high concentration of lactic acid may be new biomarkers that reflects the energy metabolic disorder of mitochondrial disease patients.

2SA cells (control cell) [3] = assay: metabolome analysis of energy metabolism; format: cell-based, human; conditions: high concentration
Method: as §1

2SA cells (control cell) [4] = conditions: high concentration, non-patent document 1; cited from earlier work
2SD cells [5] = assay: quantitative RT-PCR of GDF15, INHBE and IL1A expression; format: cell-based, human; conditions: 10 mM, 4 and 8 hours after treatment
Method: Total RNA was isolated from cells with miRNeasy-minikit (Qiagen), and reverse transcribed to cDNA with a High Capacity cDNA Reverse Transcription Kit (Life Technologies, Carlsbad, Calif., USA) used according to the manufacturer's protocols. Real-time PCR was performed on the StepOnePlus Real-Time PCR System (Life Technologies) using Power SYBR Green PCR Master Mix. 18S rRNA gene was used as an internal control for normalization. The sequences of primers are listed in Table 1(The numbers in the sequence listing, SEQ ID NO: 1 to 1 stage left, SEQ ID NO: 2 to the right sequentially subjected to SEQ ID NO: 8.).
(iv) In order to determine the expression level of GDF15, INHBE and IL1A in cells, quantitative RT-PCRs were performed. The expression level of GDF15, INHBE, and IL1A were increased at 4 and 8 hours after treatment with 10 mM lactate in 2SD cells, otherwise they were not changed after treatment with 10mM pyruvate. The expression level of GDF15 was higher in 2SD cells than in 2SA cells at 0 hour. On the results, the reproducibility of the microarray data were confirmed. GDF15, INHBE, and IL1A were identified as biomarkers for mitochondrial diseases (FIG. 2 to FIG. 4).

2SD cells [6] = conditions: 10 mM, 4 hours after treatment, non-patent document 1; cited from earlier work
[7] = system: 2SD cells (mitochondrial disease model cell); assay: exhaustive gene expression analysis (microarray) after lactate or pyruvate treatment; format: cell-based, human
Text: (i) Cybrid cells established from myoblasts in MELAS (mitochondrial myopathy, encephalopathy, lactic acidosis, and stroke-like episodes), which is relatively high incident among mitochondrial diseases patient and human osteosarcoma 143B cells were used in the experiment. Specifically, myoblast cells from MELAS patients lacking the cell nuclei were fused with human osteosarcoma-derived 143B cells lacking mitochondrial DNA (mtDNA). From some fused cell lines, a cell line without m.3243A>G mutation in mtDNA was used as control cell (2SA) and a cell line with m.3243A>G mutation with 94% was used as mitochondrial disease model cell (2SD) (the mutation ratio is not 100%, because mitochondria is heteroplasmy). Cells were cultured in high-glucose Dulbecco's modified Eagle's medium (DMEM) supplemented with 10% FBS, 1 mM sodium pyruvate, and 0.4 mM uridine at 37° C. under a humidified atmosphere of 5% CO2. Total RNA was isolated from cells by using a miRNeasy mini kit (Qiagen, Venlo, Netherlands). One hundred nanograms of total RNA was labeled and amplified with a low input quick amp labeling kit (Agilent Technologies, Santa Clara, Calif., USA) used according to the manufacturer's instructions. The labeled cRNA was hybridized to the Agilent SurePrint G3 Human GE 8×60K Microarray in a rotating hybridization oven at 10 rpm for 20 h at 65° C. After hybridization, the microarrays were washed according to the manufacturer's instructions and scanned on an Agilent DNA Microarray Scanner with Scan Control software. The resulting images were processed, and raw data were collected by using Agilent Feature Extraction software. Expression data were analyzed by using GeneSpring GX 11 (Agilent Technologies). The signal intensity of each probe was normalized by a percentile shift, in which each value was divided by the 75th percentile of all values in its array. For pairwise comparison analysis, only the probes that had expression flags present under at least one condition were considered. The list was analyzed with Ingenuity Pathways Analysis software (Ingenuity Systems, Redwood, Calif., USA). (i) 2SA cells and 2SD cells were collected at 0, 4, and 8 hours after treatment of 10 mM lactate or 10 mM of pyruvate. After RNA were extracted from these cells, exhaustive gene expression analysis were performed using microarray analysis.

2SD cells [8] = assay: ELISA of GDF15 concentration in culture medium; format: cell-based, human; conditions: 10 mM lactate, medium cultured 24 h
Method: Cells were placed on 60-mm dishes 1 day before replacing the medium with fresh medium. Conditioned medium cultured for 24 h was collected, and the particulates were removed by centrifugation (at 500×g for 10 min, at 10,000×g for 30 min). The GDF15 and INHBE concentrations in the supernatants and in the sera of patients were determined in duplicate by using a Human GDF-15 Immunoassay (DGD150, R&D Systems, Minneapolis, Minn., USA) and enzyme-linked immunosorbent assay kit for Inhibin Beta E (E90048Hu, Uscn Life Science, Wuhan, Hubei, PRC) according to the manufacturer's instructions. For measuring IL1A and other cytokine concentrations, the sera were subjected to a multiplex suspension array, Bio Plex Pro Human Cytokine Grp II Panel 21-Plex (MF0-005KMII, Bio-Rad, Hercules, Calif., USA). The cytokines measured by use of this array were the following: IL-2Rα, IL-3, IL-12 (p40), IL-16, IL-18, CTACK, GRO-α, HGF, IFN-α2, LIF, MCP-3, M-CSF, MIF, MIG, β-NGF, SCF, SCGF-β, SDF-1α, TNF-β, and TRAIL.
(v) The concentrations of three secreted proteins as candidate biomarkers in cell culture were measured by ELISA and multiplex suspension arrays. […] Other secreted proteins could not be measured under the detection limit.

[9] = 10 mM lactate, 8 h vs 0 h after lactate treatment
[10] = lactate vs pyruvate treatment at 8 h

In the case of `CC(=O)C(=O)[O-].[Na+]` [sodium pyruvate], the “concentration of GDF-15” value [1] is reported as “significantly reduced”, the concentration of alanine [1] is reported as “significantly reduced” and the concentration of lactate [1] is reported as “significantly reduced”. For the same compound, the concentration of pyruvate [1] was “significantly reduced”, the side effects [1] was “no side effects were observed” and the therapeutic effect [1] was “highly effective therapy”.
In the case of `CC(O)C(=O)O` (stereo not shown) [lactate, lactic acid], the energy metabolism disorder (2SD cells [2]) is listed as “remarkable”, the energy metabolism disorder (2SA cells (control cell) [3]) is listed as “not observed” and the energy metabolism disorder (2SA cells (control cell) [4]) is listed as “not observed”. The “expression level of GDF15” value (2SD cells [5]) was “increased”, the “expression level of IL1A” value (2SD cells [5]) was “increased” and the “expression level of INHBE” value (2SD cells [5]) was “increased”. For the same compound, the energy metabolism disorder (2SD cells [6]) was “remarkable”, the “Fold Change L-8/L-0, ADAMTS17” value [7, 9] was 3.5 and the “Fold Change L-8/L-0, ADM2” value [7, 9] was 10.3. The “Fold Change L-8/L-0, AMTN” value [7, 9] was 5.0, the “Fold Change L-8/L-0, APOL6” value [7, 9] was 6.2 and the “Fold Change L-8/L-0, AREG” value [7, 9] was 14.0. The “Fold Change L-8/L-0, C1QTNF1” value [7, 9] was 2.6, the “Fold Change L-8/L-0, C12orf39” value [7, 9] was 6.3 and the “Fold Change L-8/L-0, CLEC3B” value [7, 9] was 2.1. The “Fold Change L-8/L-0, CXCL1” value [7, 9] was −3.4, the “Fold Change L-8/L-0, DKK1” value [7, 9] was −2.1 and the “Fold Change L-8/L-0, ECM2” value [7, 9] was 11.8. For the same compound, the “Fold Change L-8/L-0, GDF15” value [7, 9] was 27.4, the “Fold Change L-8/L-0, HECW2” value [7, 9] was 2.4 and the “Fold Change L-8/L-0, IGFALS” value [7, 9] was 2.3. The “Fold Change L-8/L-0, IGFBPI” value [7, 9] was 2.3, the “Fold Change L-8/L-0, IL1A” value [7, 9] was 7.6 and the “Fold Change L-8/L-0, IL23A” value [7, 9] was 4.4. For the same compound, the “Fold Change L-8/L-0, INHBE” value [7, 9] was 15.0, the “Fold Change L-8/L-0, MMP3” value [7, 9] was 9.8 and the “Fold Change L-8/L-0, PDGFA” value [7, 9] was 2.2. For the same compound, the “Fold Change L-8/L-0, PDGFB” value [7, 9] was 2.8, the “Fold Change L-8/L-0, PDZRN3” value [7, 9] was −2.4 and the “Fold Change L-8/L-0, SCG5” value [7, 9] was 5.2. The “Fold Change L-8/L-0, SLC39A10” value [7, 9] was −2.3, the “Fold Change L-8/L-0, SPOCK2” value [7, 9] was 5.1 and the “Fold Change L-8/L-0, STC2” value [7, 9] was 3.4. The “Fold Change L-8/L-0, VEGFA” value [7, 9] was 3.4, the “Fold Change L-8/P-8, ADAMTS17” value [7, 10] was 2.2 and the “Fold Change L-8/P-8, ADM2” value [7, 10] was 3.0. For the same compound, the “Fold Change L-8/P-8, AMTN” value [7, 10] was 3.9, the “Fold Change L-8/P-8, APOL6” value [7, 10] was 3.8 and the “Fold Change L-8/P-8, AREG” value [7, 10] was 2.2. For the same compound, the “Fold Change L-8/P-8, C1QTNF1” value [7, 10] was 2.9, the “Fold Change L-8/P-8, C12orf39” value [7, 10] was 6.7 and the “Fold Change L-8/P-8, CLEC3B” value [7, 10] was 2.2. The “Fold Change L-8/P-8, CXCL1” value [7, 10] was −2.6, the “Fold Change L-8/P-8, DKK1” value [7, 10] was −2.3 and the “Fold Change L-8/P-8, ECM2” value [7, 10] was 9.0. The “Fold Change L-8/P-8, GDF15” value [7, 10] was 14.8, the “Fold Change L-8/P-8, HECW2” value [7, 10] was 2.1 and the “Fold Change L-8/P-8, IGFALS” value [7, 10] was 2.5. The “Fold Change L-8/P-8, IGFBPI” value [7, 10] was 2.1, the “Fold Change L-8/P-8, IL1A” value [7, 10] was 6.0 and the “Fold Change L-8/P-8, IL23A” value [7, 10] was 2.8. The “Fold Change L-8/P-8, INHBE” value [7, 10] was 9.4, the “Fold Change L-8/P-8, MMP3” value [7, 10] was 4.2 and the “Fold Change L-8/P-8, PDGFA” value [7, 10] was 2.2. The “Fold Change L-8/P-8, PDGFB” value [7, 10] was 3.8, the “Fold Change L-8/P-8, PDZRN3” value [7, 10] was −2.0 and the “Fold Change L-8/P-8, SCG5” value [7, 10] was 3.0. The “Fold Change L-8/P-8, SLC39A10” value [7, 10] was −2.9, the “Fold Change L-8/P-8, SPOCK2” value [7, 10] was 6.6 and the “Fold Change L-8/P-8, STC2” value [7, 10] was 2.6. The “Fold Change L-8/P-8, VEGFA” value [7, 10] was 2.5 and the “concentration of GDF15 in culture medium” value (2SD cells [8]) was “increased”.
With `CC(=O)C(=O)O` [pyruvate, pyruvic acid] the energy metabolism disorder (2SD cells [2]) was “not observed”, the “expression level of GDF15” value (2SD cells [5]) was “not changed” and the “expression level of IL1A” value (2SD cells [5]) was “not changed”. For the same compound, the “expression level of INHBE” value (2SD cells [5]) was “not changed” and the energy metabolism disorder (2SD cells [6]) was “not observed”.
